What is called inhibition is the percentage by which the read-out fell short of the control. By IC50 is commonly meant the concentration at which inhibition is half-maximal. High values mean weaker potency, low ones greater potency.

The results in this text go back to publication PMC4581874 (PLoS ONE, 2015).

Molecules are shown by their SMILES.

Data set [1] deals with T1, PKCζ (h) (Homo sapiens, UniProt Q05513).
T1 construct: purchased Millipore (now Eurofins) KinaseProfiler / IC50 Profiler
Put plainly: Kinase profile, PKCζ. The data set is classed as biochemical. To be noted: mean ± S.D. As for the experimental part: (§1) All kinase assays were carried out using KinaseProfiler^TM and IC50 Profiler^TM (Millipore UK Ltd., Dundee, UK. Now Eurofins Scientific, Dundee, UK). All IC50 data were presented as the mean values. The Curves obtained to determine IC50 values were shown in Supporting Information (S1 Fig).

Data set [2] addresses T2, PDGFRβ (Homo sapiens, UniProt P09619).
T2 construct: purchased Millipore UK Ltd., Dundee, UK (now Eurofins Scientific); KinaseProfiler / IC50 Profiler service
As to the kind of experiment: In vitro kinase assay, PDGFRβ. The class given is biochemical. The method, then: as §1

The test system of data set [3] is HUVECs. Put plainly: HUVEC viability assay (cytotoxicity). The class given is cell-based, human. To be noted: 24 hours. The method, then:
HCC827 cells were purchased from the American Type Culture Collection (ATCC, Manassas, VA, USA). Cells were grown in RPMI 1640 (Welgene Inc., Daegu, Republic of Korea) supplemented with 10% fetal bovine serum (FBS) (Welgene Inc.) and 1% penicillin-streptomycin (Gibco®, Life Technologies, Carlsbad, CA, USA) in a humidified 5% CO2 atmosphere at 37°C. Human umbilical vein endothelial cells (HUVECs, ScienCell Research Laboratories, Carlsbad, CA, USA) were cultured in endothelial growth medium-2 (EGM-2; Lonza, Walkersville, MD, USA) from passages 3 to 6.
For the HUVEC viability assay, HUVECs were treated with phosphate-buffered saline (PBS) or the indicated concentrations of VEGF inhibitors in EGM-2 medium for 24 hours. After the cells were washed with PBS, they were counted using an inverted light microscope (Nikon Eclipse Ti-U; Nikon Corp., Tokyo, Japan) in 5 random fields from each well.

For data set [4], the target named is T3, PKCβI (h) (Homo sapiens, UniProt P05771).
T3 construct: purchased Millipore (now Eurofins) KinaseProfiler / IC50 Profiler
As to the kind of experiment: Kinase profile, PKCβI. The note with it: mean ± S.D. The data set is classed as biochemical. As for the experimental part: as §1

The target of data set [5] is T4, PKG1β (h) (Homo sapiens, UniProt Q13976).
T4 construct: purchased Millipore (now Eurofins) KinaseProfiler / IC50 Profiler
Put plainly: Kinase profile, PKG1β. The note with it: mean ± S.D. The class given is biochemical. The method, then:
as §1

Data set [6] deals with T5, PhKγ2 (h) (Homo sapiens, UniProt P15735).
T5 construct: purchased Millipore (now Eurofins) KinaseProfiler / IC50 Profiler
As to the kind of experiment: Kinase profile, PhKγ2. The data set is classed as biochemical. To be noted: mean ± S.D. As for the experimental part:
as §1

Data set [7] concerns the target T6, PKCβII (h) (Homo sapiens, UniProt P05771).
T6 construct: purchased Millipore (now Eurofins) KinaseProfiler / IC50 Profiler
As to the kind of experiment: Kinase profile, PKCβII. The class given is biochemical. To be noted: mean ± S.D. As for the experimental part:
as §1

Data set [8] has as its target T7, PDGFRα (Homo sapiens, UniProt P16234).
T7 construct: purchased Millipore UK Ltd., Dundee, UK (now Eurofins Scientific); KinaseProfiler / IC50 Profiler service
Put plainly: In vitro kinase assay, PDGFRα. The data set is classed as biochemical. The method, then:
as §1

For data set [9], the target named is T8, LKB1 (h) (Homo sapiens, UniProt Q15831).
T8 construct: purchased Millipore (now Eurofins) KinaseProfiler / IC50 Profiler
Put plainly: Kinase profile, LKB1. The class given is biochemical. The note with it: mean ± S.D. The method, then:
as §1

In data set [10] the test system is HUVECs. Put plainly: VEGF-induced endothelial proliferation assay. The class given is cell-based, human. To be noted: VEGF 50 ng/mL, compound 1 μg/mL. The method, then: For the cell proliferation assays, cells were incubated overnight in endothelial basal media (EBM; Lonza, Walkersville, MD, USA) containing 0.5% FBS or supplemented with VEGF-A and/or VEGF inhibitors. The cells were washed with PBS and counted in 4 random microscope fields. The tube formation assay was performed by seeding cells on Matrigel-coated plates (BD Bioscience, Bedford, MA, USA) and incubating in EBM containing 0.5% FBS or supplemented with VEGF-A and/or VEGF inhibitors. After overnight incubation, tubule networks were quantified by measuring the tubule length in 4 random microscope fields. For the analysis of scratch wound migration, confluent cell monolayers grown on 6-well plates were scratched using a micropipette tip. After the plates were washed with PBS to remove dislodged cells and media, they were incubated with EBM containing 0.5% FBS or supplemented with VEGF and/or VEGF inhibitors for 8 hours. Cell migration was observed by optical microscopy and quantified by measuring the number of cells that had migrated from the wound edges.

In data set [11] the target is EGFR (Homo sapiens, UniProt P00533). Put plainly: In vitro kinase assay, EGFR. The class given is biochemical. The method, then:
All kinase assays were carried out using KinaseProfiler^TM and IC50 Profiler^TM (Millipore UK Ltd., Dundee, UK. Now Eurofins Scientific, Dundee, UK). All IC50 data were presented as the mean values.

Data set [12] has as its target T9, AMPKα1 (h) (Homo sapiens, UniProt Q13131).
T9 construct: purchased Millipore (now Eurofins) KinaseProfiler / IC50 Profiler
Put plainly: Kinase profile, AMPKα1. The note with it: mean ± S.D. The class given is biochemical. The method, then: as §1

Data set [13] concerns the target T10, GSK3β (h) (Homo sapiens, UniProt P49841).
T10 construct: purchased Millipore (now Eurofins) KinaseProfiler / IC50 Profiler
Put plainly: Kinase profile, GSK3β. The data set is classed as biochemical. To be noted: mean ± S.D. As for the experimental part: as §1

The target in data set [14] is T11, SAPK2a (h) (Homo sapiens, UniProt Q16539).
T11 construct: purchased Millipore (now Eurofins) KinaseProfiler / IC50 Profiler
As to the kind of experiment: Kinase profile, SAPK2a. The data set is classed as biochemical. The note with it: mean ± S.D. As for the experimental part:
as §1

Data set [15] relates to HUVECs. As to the kind of experiment: VEGF-induced tube formation assay. The class given is cell-based, human. To be noted: VEGF 50 ng/mL, compound 1 μg/mL. The method, then:
For analyzing of the antagonistic response to VEGF, tube formation, scratch wound migration, and cell proliferation assays were performed after the exposure of HUVECs to 50 ng/mL VEGF-A (R&D Systems, Minneapolis, MN), which induced a significant angiogenic response. For the cell proliferation assays, cells were incubated overnight in endothelial basal media (EBM; Lonza, Walkersville, MD, USA) containing 0.5% FBS or supplemented with VEGF-A and/or VEGF inhibitors. The cells were washed with PBS and counted in 4 random microscope fields. The tube formation assay was performed by seeding cells on Matrigel-coated plates (BD Bioscience, Bedford, MA, USA) and incubating in EBM containing 0.5% FBS or supplemented with VEGF-A and/or VEGF inhibitors. After overnight incubation, tubule networks were quantified by measuring the tubule length in 4 random microscope fields. For the analysis of scratch wound migration, confluent cell monolayers grown on 6-well plates were scratched using a micropipette tip. […] Cell migration was observed by optical microscopy and quantified by measuring the number of cells that had migrated from the wound edges.
In (A) and (B), the number of cells was expressed as the fold change with respect to the number of cells seeded at day 0. […]

The target of data set [16] is T12, IR (h) (Homo sapiens, UniProt P06213).
T12 construct: purchased Millipore (now Eurofins) KinaseProfiler / IC50 Profiler
Put plainly: Kinase profile, IR. The class given is biochemical. To be noted: mean ± S.D. The method, then: as §1

Data set [17] addresses T13, ROCK-II (h) (Homo sapiens, UniProt O75116).
T13 construct: purchased Millipore (now Eurofins) KinaseProfiler / IC50 Profiler
As to the kind of experiment: Kinase profile, ROCK-II. The data set is classed as biochemical. The note with it: mean ± S.D. The method, then:
as §1

T2 sequence (P09619 33-1106): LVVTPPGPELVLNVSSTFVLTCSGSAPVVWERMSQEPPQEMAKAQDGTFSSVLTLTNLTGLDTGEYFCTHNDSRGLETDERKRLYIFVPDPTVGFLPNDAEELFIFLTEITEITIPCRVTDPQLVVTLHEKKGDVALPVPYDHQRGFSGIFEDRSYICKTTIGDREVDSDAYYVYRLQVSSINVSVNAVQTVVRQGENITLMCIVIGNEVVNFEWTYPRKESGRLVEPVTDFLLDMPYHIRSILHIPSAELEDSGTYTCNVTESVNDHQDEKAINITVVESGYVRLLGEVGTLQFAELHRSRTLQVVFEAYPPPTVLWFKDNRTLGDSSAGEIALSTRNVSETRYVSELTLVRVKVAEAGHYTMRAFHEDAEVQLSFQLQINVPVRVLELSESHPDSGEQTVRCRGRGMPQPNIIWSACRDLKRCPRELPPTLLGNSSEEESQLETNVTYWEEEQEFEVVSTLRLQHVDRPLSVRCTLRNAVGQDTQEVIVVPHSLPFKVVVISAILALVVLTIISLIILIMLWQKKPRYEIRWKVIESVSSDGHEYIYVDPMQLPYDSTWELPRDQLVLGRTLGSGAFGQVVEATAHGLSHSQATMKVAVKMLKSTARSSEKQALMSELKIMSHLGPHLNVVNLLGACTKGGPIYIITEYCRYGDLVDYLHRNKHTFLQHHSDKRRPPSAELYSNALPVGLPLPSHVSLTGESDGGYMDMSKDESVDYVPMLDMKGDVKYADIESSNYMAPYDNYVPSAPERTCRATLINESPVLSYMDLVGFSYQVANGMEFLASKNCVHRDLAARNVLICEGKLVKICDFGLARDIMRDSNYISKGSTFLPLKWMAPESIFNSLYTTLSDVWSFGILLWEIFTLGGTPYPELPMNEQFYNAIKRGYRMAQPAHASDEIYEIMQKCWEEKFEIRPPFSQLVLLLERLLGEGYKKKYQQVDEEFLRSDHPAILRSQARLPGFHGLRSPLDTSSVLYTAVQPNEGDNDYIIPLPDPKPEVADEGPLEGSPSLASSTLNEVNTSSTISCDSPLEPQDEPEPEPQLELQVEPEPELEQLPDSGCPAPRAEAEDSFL
Chain of EGFR (P00533 25-1210): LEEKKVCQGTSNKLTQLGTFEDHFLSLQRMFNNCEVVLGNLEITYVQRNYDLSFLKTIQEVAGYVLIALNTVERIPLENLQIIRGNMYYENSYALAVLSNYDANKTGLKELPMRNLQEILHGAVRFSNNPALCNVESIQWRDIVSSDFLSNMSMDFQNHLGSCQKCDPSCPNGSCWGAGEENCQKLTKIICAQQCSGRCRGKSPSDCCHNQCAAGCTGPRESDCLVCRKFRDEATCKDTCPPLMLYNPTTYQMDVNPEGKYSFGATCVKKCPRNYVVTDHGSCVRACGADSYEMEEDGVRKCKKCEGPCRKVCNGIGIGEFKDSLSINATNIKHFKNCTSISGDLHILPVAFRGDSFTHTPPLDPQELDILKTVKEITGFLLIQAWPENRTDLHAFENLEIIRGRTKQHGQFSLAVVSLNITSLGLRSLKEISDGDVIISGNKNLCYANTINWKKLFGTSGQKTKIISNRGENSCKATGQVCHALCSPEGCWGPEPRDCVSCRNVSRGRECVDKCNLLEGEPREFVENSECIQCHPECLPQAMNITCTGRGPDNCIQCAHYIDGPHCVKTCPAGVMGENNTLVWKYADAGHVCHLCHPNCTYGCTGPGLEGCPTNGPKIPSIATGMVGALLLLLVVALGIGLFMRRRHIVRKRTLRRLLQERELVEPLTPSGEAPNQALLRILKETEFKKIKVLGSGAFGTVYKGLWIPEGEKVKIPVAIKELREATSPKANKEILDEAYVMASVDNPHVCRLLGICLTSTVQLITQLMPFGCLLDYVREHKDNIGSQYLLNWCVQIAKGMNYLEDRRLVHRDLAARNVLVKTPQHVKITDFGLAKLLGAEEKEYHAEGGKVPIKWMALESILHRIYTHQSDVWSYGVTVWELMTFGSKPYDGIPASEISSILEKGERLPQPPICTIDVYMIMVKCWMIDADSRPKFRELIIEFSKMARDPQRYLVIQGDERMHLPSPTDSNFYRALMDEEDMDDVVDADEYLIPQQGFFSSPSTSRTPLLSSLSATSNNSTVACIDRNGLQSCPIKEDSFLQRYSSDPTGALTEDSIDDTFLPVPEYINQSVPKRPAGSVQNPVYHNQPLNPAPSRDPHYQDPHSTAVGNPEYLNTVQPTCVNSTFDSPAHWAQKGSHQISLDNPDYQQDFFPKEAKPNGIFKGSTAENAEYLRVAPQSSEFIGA
T7 sequence (P16234 24-1089): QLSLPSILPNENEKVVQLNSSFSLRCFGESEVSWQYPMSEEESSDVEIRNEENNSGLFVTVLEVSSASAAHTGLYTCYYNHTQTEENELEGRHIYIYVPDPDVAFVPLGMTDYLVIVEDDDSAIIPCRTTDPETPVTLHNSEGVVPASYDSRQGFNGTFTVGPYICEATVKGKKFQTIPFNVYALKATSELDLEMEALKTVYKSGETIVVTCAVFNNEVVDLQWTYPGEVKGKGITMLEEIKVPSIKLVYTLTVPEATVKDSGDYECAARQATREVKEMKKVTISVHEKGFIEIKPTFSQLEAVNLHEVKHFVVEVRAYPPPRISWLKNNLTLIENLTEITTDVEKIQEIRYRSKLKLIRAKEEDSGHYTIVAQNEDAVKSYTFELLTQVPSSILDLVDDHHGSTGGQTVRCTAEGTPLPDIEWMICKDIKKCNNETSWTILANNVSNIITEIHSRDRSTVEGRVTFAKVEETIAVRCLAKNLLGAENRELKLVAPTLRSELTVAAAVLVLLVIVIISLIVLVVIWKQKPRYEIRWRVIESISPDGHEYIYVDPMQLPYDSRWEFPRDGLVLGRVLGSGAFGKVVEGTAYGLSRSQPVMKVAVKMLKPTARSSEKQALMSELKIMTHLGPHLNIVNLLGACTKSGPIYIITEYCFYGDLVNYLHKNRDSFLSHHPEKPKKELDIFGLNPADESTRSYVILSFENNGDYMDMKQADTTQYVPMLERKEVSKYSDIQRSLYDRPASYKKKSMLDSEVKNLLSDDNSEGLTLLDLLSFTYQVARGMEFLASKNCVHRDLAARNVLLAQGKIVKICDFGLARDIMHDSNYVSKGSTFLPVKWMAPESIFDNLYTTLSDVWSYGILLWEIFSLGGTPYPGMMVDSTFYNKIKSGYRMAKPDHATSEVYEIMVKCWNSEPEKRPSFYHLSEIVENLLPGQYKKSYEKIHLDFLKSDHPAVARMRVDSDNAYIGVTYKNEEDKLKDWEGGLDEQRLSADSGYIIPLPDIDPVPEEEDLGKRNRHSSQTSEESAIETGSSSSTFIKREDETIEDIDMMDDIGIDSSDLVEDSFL
T9 sequence (Q13131 whole entry): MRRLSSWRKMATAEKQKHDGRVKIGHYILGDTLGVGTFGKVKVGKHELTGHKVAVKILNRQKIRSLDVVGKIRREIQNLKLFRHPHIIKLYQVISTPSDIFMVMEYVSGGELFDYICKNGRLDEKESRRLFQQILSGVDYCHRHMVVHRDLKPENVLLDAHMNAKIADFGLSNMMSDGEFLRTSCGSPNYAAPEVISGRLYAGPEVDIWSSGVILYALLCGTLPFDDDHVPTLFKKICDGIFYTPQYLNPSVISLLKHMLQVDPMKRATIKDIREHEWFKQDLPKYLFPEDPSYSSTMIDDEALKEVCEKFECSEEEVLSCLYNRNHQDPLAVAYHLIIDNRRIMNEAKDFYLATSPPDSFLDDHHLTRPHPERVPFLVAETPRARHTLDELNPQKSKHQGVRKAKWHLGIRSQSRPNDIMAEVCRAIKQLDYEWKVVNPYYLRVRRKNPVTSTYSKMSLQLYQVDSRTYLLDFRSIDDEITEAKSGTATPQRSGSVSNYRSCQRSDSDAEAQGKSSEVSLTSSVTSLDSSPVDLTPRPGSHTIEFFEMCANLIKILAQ
T9 sequence (Q9Y478 whole entry partner): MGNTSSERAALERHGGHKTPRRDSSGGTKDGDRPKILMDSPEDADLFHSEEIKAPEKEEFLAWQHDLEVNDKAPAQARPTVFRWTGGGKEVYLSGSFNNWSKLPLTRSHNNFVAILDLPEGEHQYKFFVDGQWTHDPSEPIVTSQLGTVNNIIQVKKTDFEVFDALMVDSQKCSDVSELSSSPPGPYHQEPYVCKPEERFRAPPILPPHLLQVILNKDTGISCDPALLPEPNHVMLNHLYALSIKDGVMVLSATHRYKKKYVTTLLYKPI
T9 sequence (P54619 whole entry partner): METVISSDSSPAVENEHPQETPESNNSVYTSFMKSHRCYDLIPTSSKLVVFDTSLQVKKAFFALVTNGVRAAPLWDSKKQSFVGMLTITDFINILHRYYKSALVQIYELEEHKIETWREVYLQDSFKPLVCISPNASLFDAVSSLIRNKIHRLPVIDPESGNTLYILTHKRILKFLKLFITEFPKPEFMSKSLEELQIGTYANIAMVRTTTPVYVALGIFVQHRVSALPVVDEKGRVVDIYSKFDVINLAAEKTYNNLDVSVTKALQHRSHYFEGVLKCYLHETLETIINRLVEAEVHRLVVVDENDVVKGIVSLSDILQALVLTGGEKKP
T10 sequence (P49841 whole entry): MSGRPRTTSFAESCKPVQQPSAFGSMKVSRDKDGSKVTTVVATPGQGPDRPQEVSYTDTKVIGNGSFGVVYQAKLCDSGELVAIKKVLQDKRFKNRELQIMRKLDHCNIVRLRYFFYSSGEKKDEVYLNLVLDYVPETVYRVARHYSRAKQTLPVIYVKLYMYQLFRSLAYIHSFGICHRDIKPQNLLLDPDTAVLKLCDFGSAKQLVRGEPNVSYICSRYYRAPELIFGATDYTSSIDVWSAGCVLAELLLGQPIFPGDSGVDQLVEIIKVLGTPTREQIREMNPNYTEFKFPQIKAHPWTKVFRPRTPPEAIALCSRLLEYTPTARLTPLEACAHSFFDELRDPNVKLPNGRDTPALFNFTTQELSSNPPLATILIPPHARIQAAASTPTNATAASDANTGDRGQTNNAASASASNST

On to `Cc1ccc(Nc2nccc(N(C)c3ccc4[nH]ccc4c3)n2)cc1S(N)(=O)=O` [MKP101], for which the inhibition at 1 µM in [1] came out at 5 ± 4%; in data set [2] (1 μM, mean ± S.D., read-out: % inhibition at 1 μM, PDGFRβ (h)), 95 ± 1%; in data set [4] it was 7 ± 5%; in [5] it was 7 ± 1%; in [6], 0%; in data set [7], 8 ± 3%. The inhibition at 1 µM in [8] (1 μM, mean ± S.D., read-out: % inhibition at 1 μM, PDGFRα (h)) was found to be 93%; in data set [9], 0%; in data set [11] (1 μM, mean ± S.D., read-out: % inhibition at 1 μM, EGFR(h)), 96 ± 2%; in data set [12], 0%; in [13], 18 ± 4%; in data set [14], 82 ± 2%. Further, the inhibition at 1 µM in data set [16] turned out to be 14 ± 3%; in [17], 4 ± 1%. Besides, the IC50 in data set [2] (in vitro kinase assay) was 70 nM; in data set [8] (in vitro kinase assay) it was 162 nM; in [11] (in vitro kinase assay, mean values) it was 43 nM. In addition, the “Cytotoxicity in HUVECs” value in [3] (1 μg/mL) is on record as “No cytotoxicity was observed”; in data set [3] (5 and 10 μg/mL), “significant endothelial cytotoxicity”. For the same compound, the “Effect on VEGF-induced increase in endothelial proliferation” value in data set [10] is “significantly inhibited”. The “Effect on VEGF-induced increase in tube formation” value in [15] is on record as “significantly inhibited”.
